Results taken from ChEMBL document CHEMBL1145660, “Antimicrobial Neolignans of Sassafras randaiense Roots” (1983).
Values after ≈ are worked out from the molar mass of the structure shown.

Legend:
Format in all cases: functional
[1] = system: Trichophyton mentagrophytes; assay: Antimicrobial activity against Trichophyton mentagrophytes ATCC 9972
[2] = system: Saccharomyces cerevisiae; assay: Antimicrobial activity against Saccharomyces cerevisiae ATCC 9763
[3] = system: Mycolicibacterium smegmatis; assay: Antimicrobial activity against Mycobacterium smegmatis ATCC 607
[4] = system: Staphylococcus aureus; assay: Antimicrobial activity against Staphylococcus aureus ATCC 6538

MIC [1]: 1.56 µg/mL (≈ 5.86 µM) | MIC [2]: 25 µg/mL (≈ 93.9 µM) | MIC [3]: 1.56 µg/mL (≈ 5.86 µM) | MIC [4]: 3.12 µg/mL (≈ 11.7 µM)
SMILES: C=CCc1ccc(Oc2cc(CC=C)ccc2O)cc1 [ISOMAGNOLOL]
